Assay [1] deals with T1, DPP1 in HL-60 cells (Homo sapiens, UniProt P53634). The experiment in a line: DPP1 Cell Single-Point Percent Inhibition Testing. Format: cell-based. Set-up: host or cells: HL-60 cells. Conditions: final compound concentration 5 nM, n = 1. As to the method: Example 100. DPP1 Cell Single-Point Percent Inhibition Testing
HL-60 cells (ATCC; Manassas, VA) were maintained in RPMI-1640 supplemented with 20% heat-inactivated FBS and 1× Antibiotic Antimycotic (Cytiva; Marlborough, MA). Media was changed every three to four days and cells were not allowed to exceed 1×10^6 cells per mL. Prior to assay, cells were collected by centrifugation at 500 rcf for 3 minutes, resuspended in RPMI (with no additional supplements) and counted. Cells were diluted in RPMI to a concentration of 5×10^5 live cells per mL and transferred to black 96-well plates for assay, 60 μL per well. Test articles were diluted to 25 nM in RPMI plus 0.5% DMSO, and 20 μL was added to each assay well. Compound was allowed to pre-incubate with cells with gentle shaking at 100 rpm for 60 minutes at 37° C. in a cell culture incubator maintained at 5% CO2, after which 20 μL of 500 μM H-Gly-Phe-AFC cell-permeable substrate (MP Biomedicals; Solon, OH) in RPMI was added to each well, giving final compound concentration of 5 nM, a final substrate concentration of 100 μM and a final DMSO concentration of 0.1%. Plates were returned to the incubator with shaking at 100 rpm for 30 minutes, after which fluorescence was measured at Excitation/Emission 400/505 nm. Percent Inhibition was calculated from RFU values by first subtracting background values (wells in which RPMI was substituted for cells) from each well, and then subtracting background-subtracted RFU derived from wells that received a final concentration of 10 μM brensocatib. This value represents the non-specific substrate cleavage from the HL-60 cells, and the remaining RFU should theoretically be solely the contribution of DPP1 enzyme activity. The final percent inhibition value was calculated for each test article based on remaining RFU compared to RFU from wells that received only vehicle control.

Assay [2] deals with T2, human DPP1 enzyme (Homo sapiens, UniProt P53634). Kind of assay: Human DPP1 Enzyme Single-Point Percent Inhibition Testing (HL-60 lysate). The format is biochemical. Set-up: A crude lysate of HL-60 cells (ATCC; Manassas, VA) was used as a source of human DPP1 enzyme; host or cells: HL-60 cells (crude lysate). As to conditions: final compound concentration of 10 nM, 400 μM H-Gly-Arg-AMC, n = 1. The protocol: Example 98. Human DPP1 Enzyme Single-Point Percent Inhibition Testing
A crude lysate of HL-60 cells (ATCC; Manassas, VA) was used as a source of human DPP1 enzyme in the assay. Lysate was prepared in 1% Triton X-100 in PBS at a concentration of 20,000 live cells per μL of lysis buffer and was centrifuged at 16,000 rcf for 10 minutes at 4° C., after which supernatant was collected and flash-frozen in liquid nitrogen. Test articles were applied to human DPP1 enzyme in Assay Buffer (25 mM MES pH 6.0, 50 mM NaCl, 5 mM DTT) in a total reaction volume of 125 μL. 25 μL of compound diluted to 50 nM in Assay Buffer plus 5% DMSO was first added to 50 μL of HL-60 lysate diluted to contain a DPP1 enzyme concentration of roughly 1 ng/μL and allowed to pre-incubate for 10 minutes at 37° C. after which 50 μL of 1000 μM H-Gly-Arg-AMC substrate (Bachem; St. Torrance, CA) was added, giving final compound concentration of 10 nM, a final substrate concentration of 400 μM and a final DMSO concentration of 1%. Substrate cleavage was measured for 90 minutes at 37° C., with fluorescence at Excitation/Emission 350/450 nm measured every 5 minutes. DPP1 concentration was interpolated based on its activity relative to a standard curve of activated human recombinant DPP1 enzyme. Percent inhibition at 10 nM was calculated for each test article based on remaining DPP1 activity compared to enzyme activity in wells that received only vehicle control.
Target sequence in this assay (P53634 25-463): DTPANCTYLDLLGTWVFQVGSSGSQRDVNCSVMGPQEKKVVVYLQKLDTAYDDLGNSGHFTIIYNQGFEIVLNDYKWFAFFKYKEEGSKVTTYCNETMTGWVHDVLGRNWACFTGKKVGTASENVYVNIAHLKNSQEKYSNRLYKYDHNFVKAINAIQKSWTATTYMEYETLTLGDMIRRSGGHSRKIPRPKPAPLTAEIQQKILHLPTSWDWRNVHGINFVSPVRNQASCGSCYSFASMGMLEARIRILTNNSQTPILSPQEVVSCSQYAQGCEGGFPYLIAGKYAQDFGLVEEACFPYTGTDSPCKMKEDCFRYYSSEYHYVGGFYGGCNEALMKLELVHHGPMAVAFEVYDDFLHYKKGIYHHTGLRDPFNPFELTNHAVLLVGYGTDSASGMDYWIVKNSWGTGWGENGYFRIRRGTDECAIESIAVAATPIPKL

Assay [3] deals with T2, human DPP1 enzyme. The experiment in a line: Human DPP1 Enzyme IC50 Assay. The format is biochemical. The arrangement: was first proteolytically processed into its mature form using recombinant human cathepsin L; purchased R&D Systems. Conditions: activated recombinant human DPP1, 400 μM H-Gly-Arg-AMC, 10 minutes pre-incubation at 37° C., pH 6.0; average of n runs; read-out: Avg. IC50 (Human DPP1 enzyme IC50 value ranges). In outline:
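Recombinant human DPP1, pre-activated with cathepsin L (pH 4.5), was preincubated with compound 10 min at 37 °C in MES pH 6.0, 50 mM NaCl, 5 mM DTT, 1% DMSO. Cleavage of 400 μM (final) H-Gly-Arg-AMC followed by fluorescence (350/450 nm) over 90 min at 37 °C; IC50 from four-parameter logistic fit versus no-compound control.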
Target sequence in this assay (P53634 25-134 limits assumed): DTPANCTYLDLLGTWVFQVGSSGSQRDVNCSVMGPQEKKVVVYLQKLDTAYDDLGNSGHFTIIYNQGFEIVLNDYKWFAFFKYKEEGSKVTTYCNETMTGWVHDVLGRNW
Target sequence in this assay (P53634 231-394 limits assumed): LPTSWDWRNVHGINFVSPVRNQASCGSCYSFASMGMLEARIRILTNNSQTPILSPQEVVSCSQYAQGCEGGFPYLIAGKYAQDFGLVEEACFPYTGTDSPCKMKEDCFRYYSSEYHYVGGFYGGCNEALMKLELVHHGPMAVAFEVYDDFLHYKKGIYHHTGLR
Target sequence in this assay (P53634 395-463 limits assumed): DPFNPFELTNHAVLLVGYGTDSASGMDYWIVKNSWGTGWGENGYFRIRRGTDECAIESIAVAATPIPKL

Assay [4] concerns the target T1, DPP1 in HL-60 cells. The experiment in a line: DPP1 Cell IC50 assay. Format: cell-based. The arrangement: host or cells: HL-60 cells. As to conditions: 60 min pre-incubation, H-Gly-Phe-AFC substrate, average of n runs, read-out: Avg. IC50 (DPP1 Cell IC50 value ranges). The gist of the method:
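HL-60 cells in PBS (5×10^5 live cells per mL) pre-incubated with compound (0.5% DMSO) 60 min at 37° C, 5% CO2, then H-Gly-Phe-AFC substrate (500 μM stock) added for 30 min. Fluorescence at 400/505 nm; % inhibition vs vehicle wells, IC50 from four-parameter logistic fit.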

For orientation: inhibition means the relative decrease from the control value, in per cent. By pIC50 is commonly meant the IC50 on a negative log10 scale, so that one unit is a factor of ten.

Each structure is given as a SMILES string. pIC50: −log10 of the molar value. Some results are limits rather than exact numbers.

T1 sequence (P53634 25-463): as the sequence (P53634 25-463) above

On DPP1 in HL-60 cells [1], `N#C[C@H](Cc1cc2c(cc1F)-c1ccc(F)cc1CO2)NC(=O)[C@@H]1CNCCCO1` [Compound B34] displayed an inhibition at 0.005 µM of at most 76.5%. Further, at human DPP1 enzyme [2], the inhibition at 0.01 µM lay in the range of 40 to 66.7%.

`N#C[C@H](Cc1ccc(-c2ccc3c(c2)C2(CCN(C4COC4)CC2)COC3)cc1)NC(=O)[C@@H]1CNCCCO1` [Compound I5]: the values for the negative-log IC50 (pIC50) at human DPP1 enzyme [3] and on DPP1 in HL-60 cells [4] were 7.82 to 8.30 and under 8.60, respectively.

For `Cc1cn2c3c(cc2c(C)n1)-c1cc(F)c(C[C@@H](C#N)NC(=O)[C@@H]2CNCCCO2)cc1OC3` [Compound C10], the pIC50 at human DPP1 enzyme [3] was under 7.82; on DPP1 in HL-60 cells [4], 8.60 to 9.00.

For the molecule `CO[C@@H]1CCNC[C@@H](C(=O)N[C@H](C#N)Cc2ccc(-c3ccc4c(c3)CCC(=O)N4C)cc2)OC1` [Compound A145], the pIC50 on human DPP1 enzyme [3] was over 8.30; on DPP1 in HL-60 cells [4], 8.60 to 9.00.

Consider `CO[C@@H]1CCNC[C@@H](C(=O)N[C@H](C#N)Cc2ccc(-c3ccc4c(n3)CCCN4)cc2F)OC1` [Compound A50, (2S,7R)—N-[(1S)-1-cyano-2-[2-fluoro-4-(5,6,7,8-tetrahydro-1,5-naphthyridin-2-yl)phenyl]ethyl]-7-methoxy-1,4-oxazocane-2-carboxamide], for which the pIC50 at human DPP1 enzyme [3] was over 8.30; at DPP1 in HL-60 cells [4] it was 8.60 to 9.00.

On to `Cn1c(=O)oc2cc3c(cc21)-c1cc(F)c(C[C@H](C#N)NC(=O)[C@@H]2CNCCCO2)cc1OC3` [Compound C1-A], for which the pIC50 on human DPP1 enzyme [3] is under 7.82; on DPP1 in HL-60 cells [4], under 8.60.

Take `N#C[C@H](Cc1ccc(-c2nc3c(s2)CS(=O)(=O)CC3)cc1)NC(=O)[C@@H]1CNCCCO1` [Compound A6]: the pIC50 at human DPP1 enzyme [3] is under 7.82; on DPP1 in HL-60 cells [4], under 8.60.

On to `Cn1c(=O)oc2cc3c(cc21)-c1cc(F)c(CC(C#N)NC(=O)[C@@H]2CNCCCCO2)cc1OC3` (stereo partly drawn) [Compound C5, (2S)—N-[(1S)-1-cyano-2-{4-fluoro-15-methyl-14-oxo-8,13-dioxa-15-azatetracyclo[8.7.0.0^{2,7}0.0^{12,16}]heptadeca-1(10),2,4,6,11,16-hexaen-5-yl}ethyl]-1,4-oxazocane-2-carboxamide], for which the pIC50 on human DPP1 enzyme [3] is over 8.30; on DPP1 in HL-60 cells [4] it was 8.60 to 9.00.

In the case of `Cc1cn2cc(-c3cc4sc(C[C@@H](C#N)NC(=O)[C@@H]5CNCCCCO5)cc4s3)cc2c(C)n1` (single isomer, unassigned) [Compound A30], the pIC50 was under 7.82 at human DPP1 enzyme [3] and under 8.60 at DPP1 in HL-60 cells [4].

`CCc1sc(-c2ccc(C[C@@H](C#N)NC(=O)[C@@H]3CNCCCO3)cc2)nc1-c1cnn(C)c1` [Compound D8, (2S)—N-[(1S)-1-cyano-2-{4-[5-ethyl-4-(1-methylpyrazol-4-yl)-1,3-thiazol-2-yl]phenyl}ethyl]-1,4-oxazepane-2-carboxamide]: the values for the pIC50 on human DPP1 enzyme [3] and at DPP1 in HL-60 cells [4] were under 7.82 and under 8.60, respectively.

Take `CO[C@@H]1CCNC[C@@H](C(=O)N[C@H](C#N)Cc2cc3cc(-c4cc5c(C)nc(C)cn5c4)ccc3s2)OC1` (single isomer, unassigned) [Compound A51]: the pIC50 at human DPP1 enzyme [3] is 7.82 to 8.30; on DPP1 in HL-60 cells [4], 8.60 to 9.00.

Consider `CO[C@H]1CCO[C@H](C(=O)N[C@H](C#N)Cc2ccc(-c3ccc4c(F)nn(C)c4c3)cc2F)CNC1` [Compound A165], for which the values for the pIC50 on human DPP1 enzyme [3] and on DPP1 in HL-60 cells [4] were 7.82 to 8.30 and 8.60 to 9.00, respectively.

For the molecule `N#C[C@H](Cc1ccc(-c2ccc3c(c2)C2(CCNCC2)C(=O)C3)cc1)NC(=O)[C@@H]1CNCCCO1` [Compound 22, (2S)—N-[(1S)-1-cyano-2-(4-{2-oxo-3H-spiro[indene-1,4′-piperidin]-6-yl}phenyl)ethyl]-1,4-oxazepane-2-carboxamide], the pIC50 is 7.82 to 8.30 on human DPP1 enzyme [3] and under 8.60 at DPP1 in HL-60 cells [4].

For `Cc1c(C(N)=O)sc2ncc(-c3ccc(C[C@@H](C#N)NC(=O)[C@@H]4CNCCCO4)cc3)cc12` [Compound A19, (2S)—N-[(1S)-2-(4-{2-carbamoyl-3-methylthieno[2,3-b]pyridin-5-yl}phenyl)-1-cyanoethyl]-1,4-oxazepane-2-carboxamide], the pIC50 at human DPP1 enzyme [3] is under 7.82; on DPP1 in HL-60 cells [4], under 8.60.

On to `CO[C@@H]1CCNC[C@@H](C(=O)NC(C#N)Cc2cc3c(cc2F)-c2ccc(C#N)cc2CO3)OC1` (mixture of isomers) [Compound B11, (2S,7R)—N-(1-cyano-2-{8-cyano-2-fluoro-6H-benzo[c]chromen-3-yl}ethyl)-7-methoxy-1,4-oxazocane-2-carboxamide], for which the pIC50 on human DPP1 enzyme [3] was over 8.30; at DPP1 in HL-60 cells [4], 8.60 to 9.00.

Take `CO[C@H]1CCO[C@H](C(=O)N[C@H](C#N)Cc2ccc(-c3cc4c(C)nc(C)cn4c3)cc2F)CNC1` [Compound A48, (2S,6S)—N-[(1S)-1-cyano-2-(4-{1,3-dimethylpyrrolo[1,2-a]pyrazin-7-yl}-2-fluorophenyl)ethyl]-6-methoxy-1,4-oxazocane-2-carboxamide]: the pIC50 at human DPP1 enzyme [3] was 7.82 to 8.30; on DPP1 in HL-60 cells [4], 8.60 to 9.00.

For `CO[C@@H]1CCNC[C@@H](C(=O)NC(C#N)Cc2cnc(-c3ccc4c(n3)CCCN4)s2)OC1` (stereo partly drawn) [Compound A39, (2S,7R)—N-{1-cyano-2-[2-(5,6,7,8-tetrahydro-1,5-naphthyridin-2-yl)-1,3-thiazol-5-yl]ethyl}-7-methoxy-1,4-oxazocane-2-carboxamide], the pIC50 at human DPP1 enzyme [3] was under 7.82; on DPP1 in HL-60 cells [4], under 8.60.

Turning to `CO[C@H]1CCO[C@H](C(=O)NC(C#N)Cc2cc3c(cc2F)-c2ccc(C#N)cc2CO3)CNC1` (single isomer, unassigned) [Compound B14], the negative-log IC50 (pIC50) on human DPP1 enzyme [3] was under 7.82; at DPP1 in HL-60 cells [4], under 8.60.

`CO[C@H]1CCO[C@H](C(=O)N[C@H](C#N)Cc2ccc(-c3ccc4c(c3)CCC(=O)N4C)cc2)CNC1` [Compound A147]: the figures for the pIC50 at human DPP1 enzyme [3] and at DPP1 in HL-60 cells [4] were 7.82 to 8.30 and 8.60 to 9.00, respectively.

In the case of `COC1CNC[C@@H](C(=O)N[C@H](C#N)Cc2ccc(-c3ccc4c(c3)CCC(=O)N4C)cc2F)OC1` (some centres unmarked) [Compound A152], the negative logarithm of the IC50 (pIC50) on human DPP1 enzyme [3] is over 8.30; at DPP1 in HL-60 cells [4], over 9.00.

Turning to `N#C[C@H](Cc1ccc(-c2ccc(-c3nnc(N)s3)o2)cc1)NC(=O)[C@@H]1CNCCCO1` [Compound D1, (2S)—N-[(1S)-2-{4-[5-(5-amino-1,3,4-thiadiazol-2-yl)furan-2-yl]phenyl}-1-cyanoethyl]-1,4-oxazepane-2-carboxamide], the results for the pIC50 on human DPP1 enzyme [3] and on DPP1 in HL-60 cells [4] were under 7.82 and under 8.60, respectively.

As to `COC1CNC[C@@H](C(=O)N[C@H](C#N)Cc2ccc(-c3ccc4c(c3)CCC(=O)N4C)cc2)OC1` (some centres unmarked) [Compound A146], the pIC50 is over 8.30 at human DPP1 enzyme [3] and over 9.00 on DPP1 in HL-60 cells [4].

For the origin of these results see patent US20260008760A1, “DIPEPTIDYL PEPTIDASE 1 INHIBITORS AND USES THEREOF” (Insmed Incorporated, priority 2024, published 2026).
